Results on four compounds are retold here after patent publication US20230271969A1, “NITROGEN-CONTAINING FUSED RING DERIVATIVE INHIBITOR, PREPARATION METHOD THEREFOR AND USE THEREOF” (Shanghai Hansoh Biomedical Co., Ltd., priority 2020, published 2023).

SMILES strings stand for the structures.

Assay [1] deals with T1, NK3 receptors (Homo sapiens, UniProt P29371).
T1 construct: expressed in transfected cells
T1 sequence (P29371 1-465): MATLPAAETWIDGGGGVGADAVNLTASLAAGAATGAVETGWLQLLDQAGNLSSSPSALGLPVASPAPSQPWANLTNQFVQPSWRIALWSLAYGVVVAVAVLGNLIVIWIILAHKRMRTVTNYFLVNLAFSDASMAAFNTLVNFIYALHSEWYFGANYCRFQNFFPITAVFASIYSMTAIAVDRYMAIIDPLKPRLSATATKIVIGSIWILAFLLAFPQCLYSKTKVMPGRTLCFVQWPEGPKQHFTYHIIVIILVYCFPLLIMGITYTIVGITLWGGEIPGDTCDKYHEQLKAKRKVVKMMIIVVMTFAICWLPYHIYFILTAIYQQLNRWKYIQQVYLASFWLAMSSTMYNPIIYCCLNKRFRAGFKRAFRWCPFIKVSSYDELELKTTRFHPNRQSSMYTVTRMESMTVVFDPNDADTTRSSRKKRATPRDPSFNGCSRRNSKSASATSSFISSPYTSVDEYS
Description: Calcium ion fluidity (FLIPR) in cells with stable expression of NK3 receptors. It counts as cell-based. The note with it: calcium signal, antagonist mode, read-out: NK3R IC50 (nM) FLIPR.

Assay [2] relates to luteinizing hormone (LH) content in plasma. The experiment in a line: Luteinizing hormone (LH) content in plasma of bilateral ovariectomy (OVX) rats. The note with it: oral 30 mg/kg, plasma LH 0-8 h. It counts as in vivo. From the text: Test Example 5. Effect of the Compounds of the Present Invention on Luteindzing Hormone (LH) Content in Plasma of Bilateral Ovariectomy (OVX) Rats
The objective of this test example was to determine the effect of the compounds on luteinizing hormone (LH) in plasma of bilateral ovarnectomy (OVX) rats.
10-Week-old female bilateral ovariectomy SD rats were purchased from Beijing Vital River Laboratory Animal Technology Co., Ltd. The animals were housed in a SPF grade animal facility with 5 SD rats per cage. The cages, bedding, feed and water were disinfected at high temperatures before use. All animals had free access to food and water.
Drug administration by groups: 10-Week-old female SD rats were subjected to bilateral ovariectomy and used in experiments after 3 weeks. Each SD rat was fasted overnight before the experiment, and then randomly divided into groups (3 rats per group) before the drug administration. Different test compounds were administered orally to each drug administration group at a dose of 30 mg/kg and a volume of 10 mL/kg.
Sample collection: 0.2-0.3 mL of whole blood of the SD rats in each group was collected at 0, 0.5, 1, 2, 4, 8 hours before and after the drug administration, and placed in EDTA-K2 tubes. The tubes were inverted and mixed well, and centrifuged at 4° C. at 5,000 rpm for 5 min. Then the plasma was separated and stored in an ultra-low temperature freezer (−80±10° C.).
Sample detection: All reagents, samples and ELISA plates were equilibrated at room temperature (20-25° C.) for at least 30 min. The sample was thawed, vortexed and centrifuged for use. The standard curve was prepared with Assay buffer C according to the concentration sequence of 10, 5, 2.5, 1.25, 0.625, 0.313 and 0. The sample was diluted by two folds with Sample dilution buffer G and left to stand at room temperature for 10 min. […] The OD values of each well was read at a wavelength of 450 nm with a microplate reader.
The standard curve was plotted by using Graphpad, and the concentration of the sample was calculated. […]

Assay [3] concerns the target T1, NK3 receptors. The experiment in a line: Antagonism of IP1 in HEK293 cells with stable expression of NK3. The note with it: agonist Senktide 3 nM, read-out: NK3R IC50 (nM) IP1. The class given is cell-based.
Assay [4] deals with Senktide-induced bilateral ovariectomy rats. The experiment in a line: Tail skin temperature in a Senktide-induced bilateral ovariectomy rat model. It counts as in vivo. The settings on record: OVX SD rats, oral 30 mg/kg, 30 min before s.c. Senktide, tail skin temperature over 75 min. From the text: Pharmacodynamic Study of the Test Compounds on Tail Skin Temperature in a Senktide-Induced Bilateral Ovariectomy Rat Model
To evaluate the effect of the test compounds on tail skin temperature in Senktide-induced bilateral ovariectomy rats.
2.3. Experimental Animals • Ten-Week-old female bilateral ovariectomy SD rats were purchased from Beijing Vital River Laboratory Animal Technology Co., Ltd. The animals were housed in a SPF grade animal facility with 5 SD rats per cage. The cages, bedding, feed and water were disinfected at high temperatures before use. All animals had free access to food and water.
Ten-week-old female SD rats were subjected to bilateral ovariectomy and recovered for two weeks, and then randomly divided into negative control group, model group and drug administration group (8 rats per group), based on body weight. The probe was attached to the dorsal surface of the rat tail with medical tape, 1-2 cm away from the tailhead of the rat.
The vehicle was administered orally to the negative control group and the model group, and different test compounds were administered orally to each drug administration group at a dose of 30 mg/kg and a volume of 10 mL/kg.
Thirty minutes after the oral administration of the vehicle or test compound, the negative control group was injected subcutaneously with normal saline (at a volume of 5 mL/kg); the model group and each drug administration group were injected subcutaneously with 0.2 mg/mL of Senktide (at a volume of 5 mL/kg) to induce the hot flashes-like symptom.
The change in tail skin temperature (ΔTST) at each time point relative to time point 0 was calculated, the ΔTST-time curve of the change in tail skin temperature was plotted, and the area under curve (AUCΔTST) was calculated. ΔTST=TSTn−TST0, TST0 is the tail skin temperature at 0 minute before the subcutaneous injection of normal saline or Senktide; TSTn is the tail skin temperature at the n minute after the subcutaneous injection.
AUCΔTST=Σ(ΔTSTn+ΔTSTn+5)*5/2

By IC50 is commonly meant the concentration needed to halve the response being measured. With `[2H]c1cc(C(=O)N2CCn3c(-c4nc(Cl)ns4)nnc3[C@H]2C)ccc1Cl` [Example 73, (R)-(3-(3-Chloro-1,2,4-thiadiazol-5-yl)-8-methyl-5,6-dihydro-[1,2,4]triazolo[4,3-a]pyrazin-7(8H)-yl)(4-chlorophenyl-3-d)methanone], in assay [1], the IC50 was found to be 267 nM. Further, the “ΣAUC(ΔLH/LH · h, Mean ± SD)” value in assay [2] was −2.04 ± 1.36 ΔLH/LH · h.
Regarding `C[C@@H]1c2nnc(-c3nc4ccccc4s3)n2CCN1C(=O)c1ccc(Cl)cc1` [Example 3, (R)-(3-(Benzo[d]thiazol-2-yl)-8-methyl-5,6-dihydro-[1,2,4]triazolo[4,3-a]pyrazin-7 (8H)-yl)(4-chlorophenyl)methanone], the IC50 in assay [3] turned out to be 68.7 nM; in assay [1], 30.5 nM. The same compound registered an AUCΔTST in assay [4] of 81.3 ± 37.4 °C · min.
Taken in the same sequence, the figures for `[2H]c1c([2H])c(C(=O)N2CCn3c(-c4nc5ccccc5s4)nnc3[C@H]2C)c([2H])c([2H])c1F` [Example 2, (R)-(3-(Benzo[d]thiazol-2-yl)-8-methyl-5,6-dihydro-[1,2,4]triazolo[4,3-a]pyrazin-7 (8H)-yl)(4-fluorophenyl-2,3,5,6-d4)methanone] were 171 nM, 58.2 nM and 71.3 ± 25.5 °C · min.
For `[2H]c1cc(C(=O)N2CCn3c(-c4nc5cc(F)c(F)cc5s4)nnc3[C@H]2C)ccc1F` [Example 62], the IC50 in assay [3] came out at 92.3 nM; in assay [1], 73.6 nM. Further, in assay [2], the “ΣAUC(ΔLH/LH · h, Mean ± SD)” value is −1.77 ± 0.42 ΔLH/LH · h.
